From US20220168299A1, “PHARMACEUTICAL COMPOSITION COMPRISING TBN, OR SALT OR HYDRATE THEREOF, AND PREPARATION METHOD THEREOF” (GUANGZHOU MAGPIE PHARMACEUTICALS CO., LTD., priority 2019, published 2022)
Several values for one entry are separate records, joined by “and”; a condition that tells them apart may be missing. Equal entries are not always repeated. Where two headings read alike, the source gives them in different places.

How the values were obtained:
[1] = Bioavailability test: pharmacokinetic study of TBN (API) and enteric-coated tablets in beagle dogs; format: in vivo; conditions: 175 mg, oral gavage; for MRT last: read-out: MRT (0-t); for Vd/F: read-out: Vz/F
Description: (10) Bioavailability test: Pharmacokinetic study of TBN (API) and enteric-coated tablets in beagle dogs
6 beagle dogs were randomly divided into 2 groups, each group having 3 animals. Each test animal was given with TBN (API) at a dosage of 175 mg, or 1 enteric-coated tablet with a specification of 175 mg prepared following the method in Example 17 by oral gavage. The blood sample was collected at various times (0.08, 0.25, 0.5, 1, 1.5, 2, 4, 8, 12, and 24 h), and analyzed by LC-MS/MS. A drug concentration-time curve was plotted to calculate the pharmacokinetic parameters.

[2] = Pharmacokinetic study of TBN enteric-coated tablets (Example 25 method) and intravenous TBN in beagle dogs; format: in vivo
Description: (11) Pharmacokinetic study of TBN enteric-coated tablets prepared following the method described in Example 25
24 beagle dogs (male:female 1:1) were randomly divided into 4 groups (each group having 3 female and 3 male animals). Animals in group A were injected intravenously with a TBN (API) solution at a dosage of 6 mg·kg^−1, and animals in groups B and D were respectively given with TBN enteric-coated tablets at a dosage of 100 and 900 mg·animal^−1 by oral gavage. Blood was taken from the animals in group A before and 0.083, 0.25, 0.5, 1, 2, 4, 6, 8 and 24 h after administration; and blood was taken from the animals in group B and D before and 0.25, 0.5, 1, 2, 4, 6, 8, 12 and 24 h after administration. Animals in group C were given TBN enteric-coated tablets at a dosage of 300 mg·animal^−1 for seven consecutive days. Blood was taken from the animals in group C before and 0.25, 0.5, 1, 2, 4, 6, 8, 12 and 24 h after the first and seventh administration and before and 2 h after the second to sixth administration.
Detection and analysis by LC-MS/MS were performed and the pharmacokinetic parameters were calculated.

[3] = beagle, dog, blood, po, Average of 3 animals
[4] = beagle, dog, blood, po, individual animal
[5] = individual animal, listed as TBN (API)
[6] = both sexes, dog, blood, beagle dogs, intravenous 6 mg · kg^−1, Mean

## Cc1nc(C)c(/C=[N+](\[O-])C(C)(C)C)nc1C [TBN, (cis)-2-methyl-N-[(3,5,6-trimethylpyrazin-2-yl)methylene)2-propylamine oxide]
[1]; [3]
  AUC(0-inf): 9580 ng·h/mL
  MRT last: 49.8 min
  Vd/F: 1.22 L/kg
[1]; beagle, dog, blood, po, Average of 3 animals, read-out: AUC(0-t)
  AUC(0-t): 9580 ng·h/mL
[1]; beagle, dog, blood, po, Average of 3 animals, read-out: Cmax
  Cmax: 10100 ng/mL
[1]; [4]
  MRT last: 37.2 min
  Vd/F: 1.39 L/kg
[1]; dog, blood, individual animal
  Tmax: 15 min
[1]; Average of 3 animals
  CLz/F: 30.2 mL/min/kg
  T½z: 31.2 min
[1]; [5]
  AUC (0-∞): 5294.6 ng·h/mL and 6935.3 ng·h/mL and 16503.3 ng·h/mL
  AUC(0-t): 5290.7 ng·h/mL and 6935.2 ng·h/mL and 16503.2 ng·h/mL
  CLz/F: 42.8 mL/min/kg and 33.7 mL/min/kg and 14 mL/min/kg
  Cmax: 7280.25 ng/mL and 7291.11 ng/mL and 15646.14 ng/mL
  MRT (0-t): 53.4 min and 58.8 min
  T½z: 22.8 min and 29.4 min and 42.6 min
[2]; [6]
  AUC(0-inf): 3560 ng·h/mL
  C0: 12100 ng/mL
  clearance: 29.1 mL/min/kg
  half-life: 17.5 min
[2]; both sexes, dog, blood, beagle dogs, intravenous 6 mg · kg^−1, Mean, read-out: MRT0-inf
  MRT inf: 17.9 min
[2]; both sexes, dog, blood, beagle dogs, intravenous 6 mg · kg^−1, Mean, read-out: VDSS
  Vd: 0.503 L/kg
[2]; intravenous administration
  difference in exposure levels (C0, AUC0-t) between male and female beagle dogs: no significant difference
